Assay results: paper PMC10761119, “Phosphorylation-state dependent intraneuronal sorting of Aβ differentially impairs autophagy and the endo-lysosomal system” (Autophagy, 2023)

Assays:
[1] = tested on: primary cortical neurons; assay: ELISA of Aβ levels in the treatment media; assay type: cell-based, mouse; details: 4 hours incubation, 500 nM, neurobasal FCS- PS- media, versus amount before incubation, n = 9, N = 3
Protocol: Primary cortical neurons (DIV14) were treated with 500 nM of monomeric/unaggregated Aβ variants ([…]β and p-[…]β) in neurobasal, FCS^- PS^- media. SH-SY5Y cells seeded on D1, were treated with Aβ variants (1 μM) on D3 in DMEM/F-12 media without serum and antibiotics. Control treatment included treatment with equal volume of 10 mM NaOH solution used for preparing the Aβ stock solutions, in respective cell culture medium. SH-SY5Y cells, after 16 h of transient expression of the reporter constructs, were treated with different Aβ variants, autophagy modulator substrates and respective controls in DMEM/F-12, FCS^- PS^- media for the mentioned time points. […] Cells were either collected by scraping using a cell-scraper or fixed with 4% PFA-PBS for 15 min at RT, for further immunocytochemistry experiments. Collected treatment media was centrifuged at 1000 g for 5 min, pellet discarded and supernatant frozen at -20°C until further usage. Plates (ThermoFisher Scientific, 44-2404-21) were coated with either […]6) or anti-pAβ antibodies ([…]11 and […]) as capture antibody at RT for 2 h and blocked with 1 mg/ml BSA solution in PBS. […] Multiple readings were recorded for a single well and averaged. In each experiment, each sample was analyzed in technical duplicate/triplicate wells as indicated and average values from an independent experiment are presented (Figures 1E, 3G, SA-D and Table S2).

[2] = tested on: SH-SY5Y cells; assay: Autophagic flux with tandem reporter GFP-LC3-RFP-LC3Δ; assay type: cell-based, human; details: Aβ 1 µM, 24 h; compared to control cells; n = 6, N = 3
Protocol: SH-SY5Y cells were transfected with either GFP-LC3-LC3Δ-RFP or mCherry-GFP-LC3B tandem constructs (0.5 μg/well +1 µl transfection reagent − 24 well plate) with Lipofectamine 2000 (Life Technologies, 11668019) in OptiMEM (Life Technologies, 11058021) in DMEM/F-12, FCS^− PS^− media. After 8 h, FCS^− PS^− media was changed to normal culture media, respectively. Transfection efficiency was around 50–60% in all analyzed coverslips.
SH-SY5Y cells seeded on D1, were treated with Aβ variants (1 μM) on D3 in DMEM/F-12 media without serum and antibiotics. Control treatment included treatment with equal volume of 10 mM NaOH solution used for preparing the Aβ stock solutions, in respective cell culture medium. […]
All images were processed and analyzed using Fiji ImageJ software. […] Distance from the plaque core (Figure 1B) was measured using the concentric circles plugin module. Fluorescence intensity of the green channel (Figure S3A-B), and the number of neurons positive for Aβ signals (Figure S3-D) were quantified using the processing module of Keyence software. […] Intensity of green and red channel for a particular ROI was calculated and ratios of the individual values were computed (Figure 6B and S7A). For computing the number of mCherry^+GFP^± vesicles or per cell (Figure 6D and S7B), cell outline was drawn manually and number of vesicles per cell (nucleus count – DAPI) was calculated. […]

With “non-phosphorylated amyloid-β [npAβ, reference compound]” the “Levels of Aβ in the treatment media after incubation with primary neurons” value [1] was “significantly decreased” and the “RFP:GFP ratio (autophagic flux)” value [2] was “tended to increase”.
